Data taken from ChEMBL document CHEMBL4507282, “Data for DCP probe BI-1950” (2021).

Tests used:
[1] = target: D(1A) dopamine receptor (Homo sapiens) (UniProt P21728); assay: D1/HU Eurofins-Panlabs selectivity data (BI); settings: Compound concentration 10.0 uM
[2] = target: Vasopressin V2 receptor (Homo sapiens) (UniProt P30518); assay: VASOPRE_V2 Eurofins-Panlabs selectivity data (BI); settings: Compound concentration 10.0 uM
[3] = target: Opioid receptor (Rattus norvegicus) (UniProt P33533+P34975+P33535); assay: OPIAT/NS Eurofins-Panlabs selectivity data (BI); assay type: protein assay; settings: Compound concentration 10.0 uM
[4] = target: Sodium-dependent noradrenaline transporter (Homo sapiens) (UniProt P23975); settings: Compound concentration 10.0 uM
[5] = target: T1, Thromboxane-A synthase (Homo sapiens) (UniProt P24557); assay: THRO SYN(HU) Eurofins-Panlabs selectivity data (BI)
T1 sequence (whole entry): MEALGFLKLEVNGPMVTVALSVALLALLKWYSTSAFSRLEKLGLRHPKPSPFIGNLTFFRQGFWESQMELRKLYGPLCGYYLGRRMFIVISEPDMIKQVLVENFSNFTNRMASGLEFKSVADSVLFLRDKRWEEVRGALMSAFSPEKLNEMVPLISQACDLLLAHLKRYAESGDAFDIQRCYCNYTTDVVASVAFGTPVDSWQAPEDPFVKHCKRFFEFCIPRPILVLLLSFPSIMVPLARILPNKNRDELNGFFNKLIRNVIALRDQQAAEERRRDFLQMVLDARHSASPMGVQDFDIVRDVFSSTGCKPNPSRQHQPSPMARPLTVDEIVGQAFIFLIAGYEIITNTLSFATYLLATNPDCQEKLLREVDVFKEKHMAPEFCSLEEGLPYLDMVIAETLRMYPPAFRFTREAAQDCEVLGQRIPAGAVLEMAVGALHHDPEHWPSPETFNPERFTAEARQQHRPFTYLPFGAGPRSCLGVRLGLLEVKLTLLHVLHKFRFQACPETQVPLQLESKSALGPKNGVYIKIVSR

[6] = target: Muscarinic acetylcholine receptor M1 (Homo sapiens) (UniProt P11229); settings: Compound concentration 10.0 uM
[7] = target: Muscarinic acetylcholine receptor M2 (Homo sapiens) (UniProt P08172); settings: Compound concentration 10.0 uM
Muscarinic acetylcholine receptor M2 (Homo sapiens), sequence (P08172 whole entry): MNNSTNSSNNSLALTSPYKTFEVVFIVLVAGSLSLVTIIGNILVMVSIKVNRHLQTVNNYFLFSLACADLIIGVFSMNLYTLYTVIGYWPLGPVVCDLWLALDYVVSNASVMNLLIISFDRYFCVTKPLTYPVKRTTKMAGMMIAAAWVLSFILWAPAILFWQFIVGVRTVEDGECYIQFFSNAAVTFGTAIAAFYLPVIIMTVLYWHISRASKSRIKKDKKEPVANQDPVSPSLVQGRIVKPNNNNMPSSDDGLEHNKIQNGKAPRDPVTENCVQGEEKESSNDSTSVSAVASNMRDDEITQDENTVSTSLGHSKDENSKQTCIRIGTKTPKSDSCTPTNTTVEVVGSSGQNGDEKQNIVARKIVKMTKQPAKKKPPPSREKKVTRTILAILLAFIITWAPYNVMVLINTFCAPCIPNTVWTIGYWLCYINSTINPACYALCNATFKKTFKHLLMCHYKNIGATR

Muscarinic acetylcholine receptor M1 (Homo sapiens), sequence (P11229 whole entry): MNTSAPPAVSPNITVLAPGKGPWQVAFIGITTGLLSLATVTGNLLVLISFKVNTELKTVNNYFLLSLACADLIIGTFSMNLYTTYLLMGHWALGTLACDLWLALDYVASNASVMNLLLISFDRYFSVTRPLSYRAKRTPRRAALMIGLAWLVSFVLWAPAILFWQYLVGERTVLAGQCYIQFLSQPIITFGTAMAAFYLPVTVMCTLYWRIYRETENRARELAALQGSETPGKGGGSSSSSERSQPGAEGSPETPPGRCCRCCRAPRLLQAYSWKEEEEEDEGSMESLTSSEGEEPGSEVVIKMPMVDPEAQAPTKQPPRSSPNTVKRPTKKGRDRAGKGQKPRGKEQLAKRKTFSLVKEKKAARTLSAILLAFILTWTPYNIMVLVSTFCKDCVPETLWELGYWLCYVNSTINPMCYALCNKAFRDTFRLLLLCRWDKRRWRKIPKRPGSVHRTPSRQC
Opioid receptor (Rattus norvegicus), sequence (P33533 whole entry, looked up): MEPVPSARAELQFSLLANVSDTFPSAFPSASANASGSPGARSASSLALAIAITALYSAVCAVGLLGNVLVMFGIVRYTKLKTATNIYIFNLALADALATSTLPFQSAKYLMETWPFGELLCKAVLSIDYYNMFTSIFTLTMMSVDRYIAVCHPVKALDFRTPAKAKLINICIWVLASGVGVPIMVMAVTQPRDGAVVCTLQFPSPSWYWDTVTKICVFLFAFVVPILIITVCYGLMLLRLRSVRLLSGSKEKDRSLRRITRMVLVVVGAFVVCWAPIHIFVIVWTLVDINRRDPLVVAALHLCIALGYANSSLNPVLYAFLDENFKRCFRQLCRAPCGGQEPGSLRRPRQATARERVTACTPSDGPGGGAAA
Opioid receptor (Rattus norvegicus), sequence (P33535 whole entry, looked up): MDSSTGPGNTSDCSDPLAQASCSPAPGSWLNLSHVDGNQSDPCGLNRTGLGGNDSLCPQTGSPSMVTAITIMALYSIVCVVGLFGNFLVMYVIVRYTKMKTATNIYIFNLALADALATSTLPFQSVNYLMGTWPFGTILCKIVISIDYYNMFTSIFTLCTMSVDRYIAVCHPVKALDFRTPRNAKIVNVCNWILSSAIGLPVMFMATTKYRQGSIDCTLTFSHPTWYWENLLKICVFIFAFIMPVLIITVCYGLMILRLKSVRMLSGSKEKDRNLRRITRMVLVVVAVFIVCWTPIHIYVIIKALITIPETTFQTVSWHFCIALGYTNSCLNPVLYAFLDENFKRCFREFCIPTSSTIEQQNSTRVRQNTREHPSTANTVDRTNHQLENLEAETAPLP
Opioid receptor (Rattus norvegicus), sequence (P34975 whole entry, looked up): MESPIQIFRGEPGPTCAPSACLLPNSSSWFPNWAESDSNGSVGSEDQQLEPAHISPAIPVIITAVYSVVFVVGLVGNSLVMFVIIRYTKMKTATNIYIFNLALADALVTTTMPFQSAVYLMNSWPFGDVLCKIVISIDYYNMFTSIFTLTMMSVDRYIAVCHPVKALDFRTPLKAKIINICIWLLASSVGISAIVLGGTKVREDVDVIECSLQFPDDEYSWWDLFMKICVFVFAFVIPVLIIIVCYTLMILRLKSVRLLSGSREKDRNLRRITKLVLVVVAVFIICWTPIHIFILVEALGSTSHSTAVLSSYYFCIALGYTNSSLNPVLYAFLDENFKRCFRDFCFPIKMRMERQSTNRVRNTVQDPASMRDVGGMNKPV
D(1A) dopamine receptor (Homo sapiens), sequence (P21728 whole entry): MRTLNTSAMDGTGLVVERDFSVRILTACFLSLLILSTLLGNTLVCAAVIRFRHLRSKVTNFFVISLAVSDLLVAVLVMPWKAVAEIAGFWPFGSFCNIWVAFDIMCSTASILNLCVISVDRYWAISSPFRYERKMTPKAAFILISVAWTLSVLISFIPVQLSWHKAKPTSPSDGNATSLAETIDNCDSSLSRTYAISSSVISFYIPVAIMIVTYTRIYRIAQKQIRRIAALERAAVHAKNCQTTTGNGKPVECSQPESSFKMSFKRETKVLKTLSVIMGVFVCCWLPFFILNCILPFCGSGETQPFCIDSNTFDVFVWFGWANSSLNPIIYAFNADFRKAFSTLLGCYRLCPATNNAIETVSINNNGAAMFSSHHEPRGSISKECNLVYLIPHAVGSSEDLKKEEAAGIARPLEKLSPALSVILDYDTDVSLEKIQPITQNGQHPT
Sodium-dependent noradrenaline transporter (Homo sapiens), sequence (P23975 whole entry): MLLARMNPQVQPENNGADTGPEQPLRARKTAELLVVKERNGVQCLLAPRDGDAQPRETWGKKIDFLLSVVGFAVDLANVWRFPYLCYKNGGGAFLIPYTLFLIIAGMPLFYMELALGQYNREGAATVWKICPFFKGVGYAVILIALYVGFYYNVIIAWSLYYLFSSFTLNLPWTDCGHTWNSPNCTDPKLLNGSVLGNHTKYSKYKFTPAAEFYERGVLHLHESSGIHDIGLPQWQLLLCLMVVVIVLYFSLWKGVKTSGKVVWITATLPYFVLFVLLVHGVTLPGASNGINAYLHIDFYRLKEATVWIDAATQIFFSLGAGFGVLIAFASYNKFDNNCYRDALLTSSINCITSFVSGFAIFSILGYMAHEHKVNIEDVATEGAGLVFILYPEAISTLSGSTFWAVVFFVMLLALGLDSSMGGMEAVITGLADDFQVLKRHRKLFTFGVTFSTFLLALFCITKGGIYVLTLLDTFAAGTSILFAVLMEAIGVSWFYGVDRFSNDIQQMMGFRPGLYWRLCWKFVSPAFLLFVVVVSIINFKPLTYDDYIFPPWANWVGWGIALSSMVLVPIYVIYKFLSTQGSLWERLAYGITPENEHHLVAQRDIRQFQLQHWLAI
Vasopressin V2 receptor (Homo sapiens), sequence (P30518 whole entry): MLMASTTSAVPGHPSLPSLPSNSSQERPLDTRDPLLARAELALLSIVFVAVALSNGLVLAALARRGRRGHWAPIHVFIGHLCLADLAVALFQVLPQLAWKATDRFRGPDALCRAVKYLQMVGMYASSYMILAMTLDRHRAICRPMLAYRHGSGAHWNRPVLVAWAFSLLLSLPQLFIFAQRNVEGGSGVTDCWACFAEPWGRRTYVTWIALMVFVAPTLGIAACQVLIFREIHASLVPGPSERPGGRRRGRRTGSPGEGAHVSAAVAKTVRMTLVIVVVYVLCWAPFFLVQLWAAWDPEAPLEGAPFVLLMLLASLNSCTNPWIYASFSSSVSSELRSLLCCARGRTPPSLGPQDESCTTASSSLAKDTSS

Row | SMILES | residual activity [1] [%] | residual activity [2] [%] | residual activity [3] [%] | inhibition [4] [%] | residual activity ([5]; Compound concentration 0.03 uM) [%] | residual activity ([5]; Compound concentration 0.1 uM) [%] | residual activity ([5]; Compound concentration 0.3 uM) [%] | residual activity ([5]; Compound concentration 1.0 uM) [%] | residual activity ([5]; Compound concentration 3.0 uM) [%] | residual activity ([5]; Compound concentration 10.0 uM) [%] | inhibition [6] [%] | inhibition [7] [%]
1 | C[C@H](NC(=O)c1cnc2n1[C@](C)(Cc1ccc(C#N)cc1)C(=O)N2c1cc(Cl)c(F)c(Cl)c1)C(=O)NC1(c2ccccn2)CC1 [BI 1950] | 92 | 85 | 78 | -2.81 | 94 | 93 | 91 | 82 | 74 | 47 | – | –
2 | C[C@@]1(Cc2ccc(C#N)cc2)C(=O)N(c2cc(Cl)cc(Cl)c2)c2ncc(C(=O)NC3(c4nc(C5CCC5)no4)CC3)n21 [BI 9446] | – | – | – | – | – | – | – | – | – | – | -8.37 | -8.35
